Results taken from publication PMC5992141, “Discovery of pancreastatin inhibitor PSTi8 for the treatment of insulin resistance and diabetes: studies in rodent models of diabetes mellitus” (Scientific Reports, 2018).
Residues, ends and D or L forms follow the SMILES beside them.

Columns and labels:
GRP78 receptor [1] = biological target: T1, GRP78 receptor (Homo sapiens, UniProt P11021); assay: Competitive binding with sulphorhodamine labelled PST and PSTi8 in HepG2 cells; parameters: endogenous in cells; host or cells: HepG2
T1 sequence (P11021 19-654): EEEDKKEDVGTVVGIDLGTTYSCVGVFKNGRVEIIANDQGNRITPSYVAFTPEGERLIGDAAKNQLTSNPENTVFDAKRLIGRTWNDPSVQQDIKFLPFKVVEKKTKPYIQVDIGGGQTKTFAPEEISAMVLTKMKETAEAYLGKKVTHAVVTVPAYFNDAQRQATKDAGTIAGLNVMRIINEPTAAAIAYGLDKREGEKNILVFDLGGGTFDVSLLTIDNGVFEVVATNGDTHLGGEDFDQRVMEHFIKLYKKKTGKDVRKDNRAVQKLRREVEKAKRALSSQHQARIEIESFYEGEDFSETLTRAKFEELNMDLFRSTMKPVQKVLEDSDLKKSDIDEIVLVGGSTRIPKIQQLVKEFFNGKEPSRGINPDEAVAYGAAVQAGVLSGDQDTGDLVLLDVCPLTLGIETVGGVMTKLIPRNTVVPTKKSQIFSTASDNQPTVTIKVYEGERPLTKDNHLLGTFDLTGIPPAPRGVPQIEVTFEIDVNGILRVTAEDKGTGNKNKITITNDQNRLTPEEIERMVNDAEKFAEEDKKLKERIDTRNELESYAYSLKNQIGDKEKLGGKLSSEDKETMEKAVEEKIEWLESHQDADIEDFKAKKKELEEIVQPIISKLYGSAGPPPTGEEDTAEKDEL
Protocol: Sulphorhodamine B labelled PST and PSTi8 were synthesized and purified from Genpro Biotech, India. In HepG2 cells, the competitive binding assay of PST and PSTi8 were performed and the labelled PST and/or PSTi8 concentrations were measured at 568 nm and 584 nm, respectively.

[2] = tested on: HFrD-fed STZ induced IR mice; assay: i.p. insulin tolerance test (ITT), HFrD-fed mice; assay type: in vivo; conditions: 6 h fasted, mean ± s.e.m., n = 6
Protocol: (§1) All animal experiments were performed according to protocols approved by Institutional Animal Ethics Committee (IAEC approval no. IAEC/2012/31-A), CSIR-Central Drug Research Institute (CSIR-CDRI, India). Male C57BL/6 mice (8–10 weeks, 15–20 g) and male db/db mice (10–12 weeks, 45–50 g) were obtained from Laboratory of Animal Division, CSIR-CDRI. […] After successful of model development diabetic mice divided in two groups, vehicle control group receive saline and treated group receive PSTi8. After acute (5 mg/kg) and chronic (2 mg/kg) treatment of PSTi8 for 10 days, mice were fasted for 6 hr before experiments and then sacrificed to collect plasma and tissues, which were snap frozen in liquid nitrogen.
(§2) i.p GTT, i.p ITT and i.p PTT were carried out in 6 hr fasted mice. The blood glucose level was measured from tail tip using Contour TS blood glucose meter. The AUC is calculated using GraphPad Prism 5.0 software[4],[13].

[3] = tested on: HFrD-fed STZ induced IR mice; assay: i.p. glucose tolerance test (GTT), HFrD-fed mice; assay type: in vivo; conditions: 6 h fasted, mean ± s.e.m., n = 6
Protocol: as §1, §2

GRP78 receptor [4] = biological target: T1, GRP78 receptor; assay: GRP78 ATPase enzymatic activity (Malachite green-phosphate assay); assay type: biochemical; parameters: purchased Abcam Inc., Cambridge, MA ab78432; conditions: PSTi8 5 µM with PST 1 µM, GRP78 0.25 µM, 100 µM ATP, 37 °C, 30 min
Protocol: To determine that PSTi8 inhibit PST inhibitory action on GRP78 ATPase activity, we perform Concentration-dependent spectrophotometric assays using recombinant human GRP78 protein (catalog # ab78432, Abcam Inc., Cambridge, MA). PSTi8 was co-incubated with PST (1 µM) at different doses (1, 2.5 and 5 µM) in 50 µl of assay buffer (20 mM Tris, pH 7.5, 50 mM KCl, 1.5 mM MgCl2) containing GRP78 protein (0.25 µM). The reaction was started by adding 100 µM ATP and incubated at 37 °C for 30 min. On ATP hydrolysis free phosphate (Pi) was measured by a Malachite green-phosphate assay (catalog #10009325, Cayman)[11].

[5] = In-vivo pharmacokinetic study in db/db mice; conditions: i.p. 5 mg/kg, SPE, LC-MS/MS
Protocol: PSTi8 (5 mg/kg) was administered (i.p) in db/db mice for PK study. After dosing, blood samples were collected at different time points. Plasma samples (100 µL) were processed using the solid phase extraction (SPE). The 100 µL of eluted SPE samples were injected into the liquid chromatography tandem mass spectrometry (LC-MS/MS) (API 4000QTRAP, ABSciex, Canada) for analysis. The PK profile and parameters were evaluated by non-compartmental model approach using Pheonix 6.3 WinNonlin(Pharsight Corporation, USA).

C57Bl/6 mice = assay: Glucose reduction experiment, normoglycemic mice; assay type: in vivo; conditions: control C57Bl/6 mice (normoglycemic), acute i.p. 5 mg/kg
Protocol: as §1

## CSCC[C@H](NC(=O)[C@H](CCC(=O)O)NC(=O)[C@H](CCC(=O)O)NC(=O)[C@H](CCC(=O)O)NC(=O)[C@H](CCC(=O)O)NC(=O)[C@H](CCC(=O)O)NC(=O)[C@H](CCCCN)NC(=O)[C@H](CCC(N)=O)NC(=O)[C@H](CCC(N)=O)NC(=O)[C@H](CO)NC(=O)[C@H](Cc1c[nH]cn1)NC(=O)[C@H](CCC(=O)O)NC(=O)[C@H](CCC(N)=O)NC(=O)[C@H](CCC(=O)O)NC(=O)CNC(=O)[C@H](CCCCN)NC(=O)CNC(=O)[C@H](CCC(=O)O)NC(=O)[C@@H]1CCCN1)C(=O)N[C@@H](C)C(=O)N[C@H](C(=O)N[C@H](C(=O)N1CCC[C@H]1C(=O)N[C@@H](CCC(N)=O)C(=O)NCC(=O)N[C@@H](CC(C)C)C(=O)N[C@@H](Cc1ccccc1)C(=O)N[C@@H](CCCNC(=N)N)C(=O)NCC(N)=O)C(C)C)C(C)C [PST, Pancreastatin] (H-PEGKGEQEHSQQKEEEEEMAVVPQGLFRG-NH2)
GRP78 receptor [1]; PST 100 nM against sulphorhodamine labelled PSTi8 150 nM
  inhibition at 0.1 µM: > 50%

## CN(C)C(=N)N=C(N)N [metformin]
[2]; acute metformin p.o. 300 mg/kg, 30 min before insulin 0.6 IU/kg
  AUC, ipITT: 19828.5 ± 1004.11 mg·min/dL
[2]; chronic metformin p.o. 300 mg/kg for 7 days, insulin 0.6 IU/kg
  AUC, ipITT: 16417.5 ± 1222.35 mg·min/dL
[3]; acute metformin p.o. 300 mg/kg, 30 min before glucose 1 g/kg
  AUC, i.p GTT: 44068.5 ± 3070.1 mg·min/dL
[3]; chronic metformin p.o. 300 mg/kg for 7 days, glucose 1 g/kg
  AUC, i.p GTT: 36913.13 ± 891.89 mg·min/dL

## CSCC[C@H](NC(=O)[C@H](CCC(=O)O)NC(=O)[C@H](CCC(=O)O)NC(=O)[C@H](CCC(=O)O)NC(=O)[C@H](CCC(=O)O)NC(=O)[C@H](CCC(=O)O)NC(=O)[C@H](CCCCN)NC(=O)[C@H](CCC(N)=O)NC(=O)[C@H](CCC(N)=O)NC(=O)[C@H](CO)NC(=O)[C@H](Cc1c[nH]cn1)NC(=O)[C@H](CCC(=O)O)NC(=O)[C@H](CCC(N)=O)NC(=O)[C@H](CCC(=O)O)NC(=O)CNC(=O)[C@H](CCCCN)NC(=O)CNC(=O)[C@H](CCC(=O)O)NC(=O)[C@@H]1CCCN1)C(=O)N[C@@H](C)C(=O)N[C@H](C(N)=O)C(C)C [PSTi8] (H-PEGKGEQEHSQQKEEEEEMAV-NH2)
GRP78 receptor [1]; PSTi8 300 nM against sulphorhodamine labelled PST 25 nM
  inhibition at 0.3 µM: > 50%
GRP78 receptor [4]
  enhancement of ATPase activity of GRP78 inhibited by PST: ~50%
[5]
  time up to which plasma concentration was observed: ≤ 6 h
C57Bl/6 mice
  effect on blood glucose level: did not show any decrease in glucose level
